Tests used:
Assay in all cases: relative viability (nuclei count vs DMSO), 5 days (fraction); higher = more cells survive
[1] = compound: CN1CCN(c2ccc3nc(-c4c(N)c5c(F)cccc5[nH]c4=O)[nH]c3c2)CC1 [Dovitinib]
Summary of the method: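 Cells of lung cancer lines were placed in 1536-well plates and kept overnight at 37 °C. Pinning then delivered five library-drug doses (not always all listed), spaced by √10, onto plates anchored with vehicle, and the cells were left 5 days without changing medium. One step fixed, permeabilised and stained them with Hoechst, and MetaXpress counted nuclei in 4× images. Viability, as a median over plates, is treated-well nuclei divided by vehicle-well nuclei, with acceptance only at control CV below 25% and at least one doubling.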

[2] = compound: CN1CCN(c2ccc3nc(-c4c(N)c5c(F)cccc5[nH]c4=O)[nH]c3c2)CC1 [Dovitinib] + CC1(C)CCC(c2ccc(Cl)cc2)=C(CN2CCN(c3ccc(C(=O)NS(=O)(=O)c4ccc(N[C@H](CCN5CCOCC5)CSc5ccccc5)c(S(=O)(=O)C(F)(F)F)c4)cc3)CC2)C1 [Navitoclax] (partner 0.5 µM)
Summary of the method: (§1)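 Relative viability is defined as nuclei in treated wells over nuclei in vehicle wells. Duplicate plates were run and medians reported. Lung cancer cell lines in 1536-well plates were dosed by pin tool one day after seeding, with one drug or with a fixed anchor-drug dose plus five library-drug doses (not always all listed) in √10 steps, and nuclei were counted after 5 days.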

[3] = compound: CN1CCN(c2ccc3nc(-c4c(N)c5c(F)cccc5[nH]c4=O)[nH]c3c2)CC1 [Dovitinib] + Cc1cc(Nc2cc(N3CCN(C)CC3)nc(Sc3ccc(NC(=O)C4CC4)cc3)n2)n[nH]1 [Tozasertib] (partner 0.1 µM)
Summary of the method: as §1

[4] = compound: CN1CCN(c2ccc3nc(-c4c(N)c5c(F)cccc5[nH]c4=O)[nH]c3c2)CC1 [Dovitinib] + N=C(N)NC(=N)NCCc1ccccc1 [Phenformin] (partner 250 µM)
Summary of the method: as §1

Row | Cell Line | relative viability ([1]; 0.02 µM) | relative viability ([1]; 0.06325 µM) | relative viability ([1]; 0.2 µM) | relative viability ([1]; 0.6325 µM) | relative viability ([1]; 2 µM) | relative viability ([2]; first compound 0.02 µM) | relative viability ([2]; first compound 0.06325 µM) | relative viability ([2]; first compound 0.2 µM) | relative viability ([2]; first compound 0.6325 µM) | relative viability ([2]; first compound 2 µM) | relative viability ([3]; first compound 0.02 µM) | relative viability ([3]; first compound 0.06325 µM) | relative viability ([3]; first compound 0.2 µM) | relative viability ([3]; first compound 0.6325 µM) | relative viability ([3]; first compound 2 µM) | relative viability ([4]; first compound 0.02 µM) | relative viability ([4]; first compound 0.06325 µM) | relative viability ([4]; first compound 0.2 µM) | relative viability ([4]; first compound 0.6325 µM) | relative viability ([4]; first compound 2 µM)
1 | COR-L23 | 0.967 | 1.1 | 0.987 | 1.06 | 1.04 | 0.962 | 1.19 | 1.02 | 1.05 | 1.07 | 0.207 | 0.191 | 0.194 | 0.172 | 0.215 | 0.416 | 0.467 | 0.478 | 0.455 | 0.507
2 | COR-L 105 | 0.924 | 0.961 | 1.11 | 0.97 | 0.981 | 0.701 | 0.62 | 0.754 | 0.646 | 0.806 | 0.345 | 0.299 | 0.365 | 0.394 | 0.168 | 0.396 | 0.52 | 0.506 | 0.486 | 0.62
3 | ChaGo-K-1 | 0.961 | 1.06 | 0.97 | 1.02 | 0.995 | 1.01 | 0.976 | 0.975 | 1.14 | 1.18 | 0.233 | 0.215 | 0.241 | 0.227 | 0.208 | 0.469 | 0.534 | 0.499 | 0.476 | 0.51
4 | EKVX | 1.01 | 0.983 | 1.05 | 1.04 | 1.01 | 0.923 | 0.989 | 1.1 | 0.989 | 0.883 | 0.431 | 0.367 | 0.372 | 0.431 | 0.38 | 0.217 | 0.225 | 0.232 | 0.253 | 0.236
5 | EMC-BAC-2 | 1.06 | 0.952 | 0.994 | 1.01 | 1.02 | 1.12 | 1.2 | 1.12 | 1.15 | 1.13 | 0.294 | 0.299 | 0.287 | 0.273 | 0.3 | 0.527 | 0.482 | 0.538 | 0.471 | 0.542
6 | EPLC-272H | 0.942 | 0.955 | 0.976 | 0.913 | 0.928 | 1.05 | 0.993 | 1.24 | 1.49 | 0.97 | 0.343 | 0.267 | 0.263 | 0.343 | 0.32 | 0.323 | 0.309 | 0.274 | 0.384 | 0.317
7 | H3255 | 0.955 | 1.02 | 0.997 | 1.01 | 1.06 | 0.627 | 0.532 | 0.569 | 0.559 | 0.582 | 0.741 | 0.617 | 0.766 | 0.638 | 0.629 | 0.378 | 0.347 | 0.381 | 0.372 | 0.441
8 | HARA | 1.29 | 0.948 | 1 | 1.25 | 1.01 | 1.16 | 1.16 | 1.12 | 1.15 | 1.15 | 0.117 | 0.11 | 0.107 | 0.102 | 0.112 | 0.537 | 0.476 | 0.47 | 0.362 | 0.53

From the supplement of paper PMC10307832
